The numbers were not newly measured in US9242010B2, “Living copolymer-protein/peptide hybrids for biomedical applications” (Research Foundation of The City University of New York, priority 2008, dated 2016), which cites them from elsewhere.

Data set [1] deals with avidin/streptavidin. Particulars: interaction of avidin/streptavidin with biotin.
The conditions of data set [2]: background statement.

As to `O=C(O)CCCC[C@@H]1SC[C@@H]2NC(=O)N[C@@H]21` [biotin], the Ka in data set [1] is on record as > 10^14.
Regarding `COc1cc(/C=C/C(=O)CC(=O)/C=C/c2ccc(O)c(OC)c2)ccc1O` [curcumin, (1E,6E)-1,7-bis(4-hydroxy-3-methoxyphenyl)hepta-1,6-diene 3,5-dione], the “water and plasma solubility” value in data set [2] is “poor”.
`CC(=O)O[C@H]1C(=O)[C@@]2(C)[C@H]([C@H](OC(=O)c3ccccc3)[C@]3(O)C[C@H](OC(=O)[C@H](O)[C@@H](NC(=O)c4ccccc4)c4ccccc4)C(C)=C1C3(C)C)[C@]1(OC(C)=O)CO[C@@H]1C[C@@H]2O` [taxol]: in data set [2], the water solubility entry is “not water soluble”.
